pIC50: −log10 of the molar value. Where two headings read alike, the source gives them in different places.
Columns and labels:
Aurora A kinase = target: T1, Aurora A kinase (Homo sapiens, UniProt O14965); assay: Aurora A kinase assay (IMAP fluorescence polarization); format: biochemical; details: 10 μM ATP; rounded to 1 significant figure; read-out: Aur-A IC50
T1 construct: purchased Upstate Biotech
T1 sequence (O14965 1-403): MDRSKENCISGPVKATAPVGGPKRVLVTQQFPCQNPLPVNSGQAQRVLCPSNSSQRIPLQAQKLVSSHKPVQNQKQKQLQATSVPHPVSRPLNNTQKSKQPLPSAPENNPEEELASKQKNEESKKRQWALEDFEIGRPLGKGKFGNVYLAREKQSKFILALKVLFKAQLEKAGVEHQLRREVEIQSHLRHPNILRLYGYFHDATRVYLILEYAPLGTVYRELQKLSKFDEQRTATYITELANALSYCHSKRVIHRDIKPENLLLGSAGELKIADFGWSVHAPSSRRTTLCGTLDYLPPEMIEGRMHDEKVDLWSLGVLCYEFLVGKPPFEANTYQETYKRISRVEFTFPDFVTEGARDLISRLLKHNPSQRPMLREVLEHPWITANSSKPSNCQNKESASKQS
Summary of the method: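 Compounds (eight 3-fold dilutions, 2.5% DMSO final) were preincubated 5 min at room temperature with Aurora A kinase in buffer with 1 mM DTT. Reaction with 100 nM fluorescein-PKAtide and 10 μM ATP ran 45 min at room temperature, then was stopped with IMAP binding reagent; fluorescence polarization was read after 30 min.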

Aurora B kinase = target: T2, Aurora B kinase (Homo sapiens, UniProt Q96GD4); assay: Aurora B kinase assay (IMAP fluorescence polarization); format: biochemical; details: 10 μM ATP; rounded to 1 significant figure; read-out: Aur-B IC50
T2 construct: purchased BPS Bioscience
T2 sequence (Q96GD4 whole entry): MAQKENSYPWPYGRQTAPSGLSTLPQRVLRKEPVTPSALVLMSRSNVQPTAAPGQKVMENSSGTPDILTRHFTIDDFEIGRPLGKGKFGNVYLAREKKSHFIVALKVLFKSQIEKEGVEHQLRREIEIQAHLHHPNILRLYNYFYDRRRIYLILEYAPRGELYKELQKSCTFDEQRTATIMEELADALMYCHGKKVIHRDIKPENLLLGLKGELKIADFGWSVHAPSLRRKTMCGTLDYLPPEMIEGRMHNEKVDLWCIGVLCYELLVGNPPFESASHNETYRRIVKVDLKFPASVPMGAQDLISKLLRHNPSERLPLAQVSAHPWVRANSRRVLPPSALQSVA
Summary of the method: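 Reaction started with 100 nM fluorescein-labelled PKAtide and 10 μM ATP, run 45 min at room temperature, then stopped with IMAP binding reagent (1:400). After 30 min shaking at room temperature, fluorescence polarization read; run in duplicate with solvent control.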

VEGFR2 kinase = target: T3, VEGFR2 kinase (Homo sapiens, UniProt P35968); assay: VEGFR2 kinase assay; format: biochemical; details: 6 μM ATP, 1 mM MnCl2; rounded to 1 significant figure
T3 construct: purchased Cell Signaling Technology
T3 sequence (P35968 20-1356): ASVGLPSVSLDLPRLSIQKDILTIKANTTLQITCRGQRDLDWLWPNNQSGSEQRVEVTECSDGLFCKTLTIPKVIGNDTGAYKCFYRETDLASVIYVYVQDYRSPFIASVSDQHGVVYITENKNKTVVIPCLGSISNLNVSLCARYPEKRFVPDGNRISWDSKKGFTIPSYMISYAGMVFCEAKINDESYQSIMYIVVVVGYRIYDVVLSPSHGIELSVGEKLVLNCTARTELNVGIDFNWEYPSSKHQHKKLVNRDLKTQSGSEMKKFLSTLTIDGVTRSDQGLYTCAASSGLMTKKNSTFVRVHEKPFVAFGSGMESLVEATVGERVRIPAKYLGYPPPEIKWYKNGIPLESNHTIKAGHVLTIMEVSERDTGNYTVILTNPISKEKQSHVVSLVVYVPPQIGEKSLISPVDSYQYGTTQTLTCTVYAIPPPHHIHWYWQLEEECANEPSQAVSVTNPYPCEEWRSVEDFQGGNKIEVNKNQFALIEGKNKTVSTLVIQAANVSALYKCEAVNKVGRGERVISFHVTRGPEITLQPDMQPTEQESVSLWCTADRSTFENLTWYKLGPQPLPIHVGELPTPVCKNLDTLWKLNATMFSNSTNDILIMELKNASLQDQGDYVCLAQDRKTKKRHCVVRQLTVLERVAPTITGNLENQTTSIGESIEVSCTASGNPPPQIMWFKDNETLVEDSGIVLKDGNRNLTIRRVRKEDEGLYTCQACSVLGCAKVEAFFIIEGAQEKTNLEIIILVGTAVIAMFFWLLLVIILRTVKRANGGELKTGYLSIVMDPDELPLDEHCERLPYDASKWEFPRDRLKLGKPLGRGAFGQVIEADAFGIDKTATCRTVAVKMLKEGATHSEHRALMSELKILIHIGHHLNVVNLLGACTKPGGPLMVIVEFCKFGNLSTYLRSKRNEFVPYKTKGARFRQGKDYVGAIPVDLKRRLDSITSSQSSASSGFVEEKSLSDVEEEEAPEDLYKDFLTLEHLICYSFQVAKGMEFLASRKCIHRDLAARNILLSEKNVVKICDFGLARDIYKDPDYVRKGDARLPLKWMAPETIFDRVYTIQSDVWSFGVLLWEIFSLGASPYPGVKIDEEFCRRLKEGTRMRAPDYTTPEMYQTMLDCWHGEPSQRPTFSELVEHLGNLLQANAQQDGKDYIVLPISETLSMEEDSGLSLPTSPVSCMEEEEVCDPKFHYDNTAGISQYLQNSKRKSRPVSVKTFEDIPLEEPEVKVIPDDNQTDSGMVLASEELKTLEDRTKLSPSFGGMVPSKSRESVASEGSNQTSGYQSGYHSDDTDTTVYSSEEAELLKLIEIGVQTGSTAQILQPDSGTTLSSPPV
Summary of the method: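 VEGFR2 phosphorylates CSKtide with 6 μM ATP and 1 mM MnCl2 for 1 hr, otherwise following the Aurora A kinase protocol. Detection by IMAP fluorescence polarization, binding reagent diluted 1:1200 in 1:1 binding buffer A/B. Run in duplicate with solvent control.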

p-H3 in HCT116 cells = assay: Histone phosphorylation (p-H3) assay; format: cell-based; details: Homo sapiens, read-out: p-H3 IC50
Summary of the method: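 HCT116 cells (2.5×10^4/well, attached overnight) treated 4 h with 8-point 3-fold compound dilutions at 0.5% DMSO. Lysates dot-blotted onto nitrocellulose and probed for p-H3 with β-actin on the same membrane, fluorescent secondary antibodies, Odyssey scan; duplicate wells.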

[1] = system: HCT116 (human colon carcinoma) cells; assay: HCT116 cytotoxicity assay (CellTiter-Glo); format: cell-based; details: HCT-116, 72 h, read-out: HCT116 IC50
[2] = system: HL60 (human promyelocytic leukemia) cells; assay: HL60 cytotoxicity assay (CellTiter-Glo); format: cell-based; details: HL-60, 72 h, read-out: HL60 IC50
Description: The cell lines HL60 (human promyelocytic leukemia) and HCT116 (human colon carcinoma) were obtained from the American Type Culture Collection, Manassas, Va., U.S.A., and HUVEC-2 (human umbilical vein endothelial cells) from BD Biosciences, Bedford, Mass., U.S.A. Aurora A kinase was obtained from Upstate Biotech, Billerica, Mass., U.S.A.; Aurora B kinase from BPS Bioscience, San Diego, Calif., U.S.A.; and VEGFR2 kinase from Cell Signaling Technology, Danvers, Mass., U.S.A. The IMAP FP Screening Express kit was obtained from Molecular Devices, Sunnyvale, Calif., U.S.A.; the CellTiter-Glo assay kit from Promega Corporation, Madison, Wis., U.S.A.; and the Cellular DNA Cytometric Analysis Reagent Kit and BrdU labeling and detection kit from Roche Diagnostics Corporation, Indianapolis, Ind., U.S.A. All products were used in accordance with manufacturer's directions. Kinase inhibition assays and the histone phosphorylation (p-H3) assay were conducted in duplicate, and the cytotoxicity and HUVEC proliferation assays were conducted in triplicate, in each case with solvent control.
Log-phase cells were trypsinized, collected by centrifugation, and resuspended in a small volume of fresh medium, and the density of viable cells was determined following Trypan Blue staining. Cells were diluted in fresh media (1×10^4 cells/mL for HL60 and 4×10^4 cells/mL for HCT116 cells), the test compounds (concentrations between 0.1 μM and 200 μM, dissolved in DMSO, 50 μL) added immediately after dilution to achieve a final DMSO concentration of 0.5%, then the suspensions added at 150 μL/well to 96-well plates, and incubated overnight to allow attachment in the case of adherent cells. The cells were cultured for three days (about three doubling times). The cells were then collected by centrifugation, and 100 μL of the culture supernatant was replaced by the CellTiter-Glo reagent. After incubation for 15 minutes at room temperature, the plate was read with a luminometer.

[3] = system: HUVEC-2 (human umbilical vein endothelial cells); assay: HUVEC VEGF-dependent proliferation assay (BrdU); format: cell-based; details: read-out: HUVEC IC50
Summary of the method: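 HUVEC-2 cells on gelatin got serially diluted compound (0.5% DMSO final), and VEGF (25 ng/mL) was added 2 hr later. BrdU (10 μM) went in after one day, with labelling for another day. VEGF-dependent proliferation was read by BrdU detection, in triplicate.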

[4] = HCT-116, HCT116 cells, 4 hr incubation
[5] = cytotoxicity, three days culture
[6] = VEGF (25 ng/mL)-dependent proliferation

Row | SMILES | pIC50 (Aurora A kinase) | pIC50 (Aurora B kinase) | pIC50 (VEGFR2 kinase) | pIC50 (p-H3 in HCT116 cells; [4]) | pIC50 (p-H3 in HCT116 cells; HCT-116, 4 h) | pIC50 [1] | pIC50 [2] | pIC50 [3] | pIC50 [1, 5] | pIC50 [2, 5] | pIC50 [3, 6]
1 | NC(=O)/C(=C1\Nc2ccc(CC(=O)NCCCN3CCOCC3)cc2S1)c1nccc(C(F)(F)F)n1 [Compound 110A] | 7.30 | 7.70 | 7.70 |  | 6.70 | 6.70 | 6.10 | 7.10 |  |  | 
2 | CN(C)CC(=O)Nc1ccc2c(c1)S/C(=C(/C(N)=O)c1nccc(C(F)(F)F)n1)N2 [Compound 74A] | 7.70 | 8.00 | 7.70 | 6.70 |  |  |  |  | 6.52 | 7.40 | 7.10
3 | CC(C)(N)C(=O)Nc1ccc2c(c1)N/C(=C(/C(N)=O)c1nccc(C(F)(F)F)n1)N2 [Compound 81A] | 8.22 | 8.15 | 8.05 | 7.05 |  |  |  |  | 6.52 | 6.70 | 7.10
4 | NC(=O)/C(=C1\Nc2ccc(C(=O)NCCn3ccnc3)cc2S1)c1nccc(C(F)(F)F)n1 [Compound 47A] | 8.40 | 8.22 | 7.70 | 6.70 |  |  |  |  | 6.52 | 6.52 | 8.40
5 | NC(=O)/C(=C1\Nc2ccc(NC(=O)CCN3CCOCC3)cc2N1)c1nccc(C(F)(F)F)n1 [Compound 84A] | 8.15 | 8.05 | 7.70 | 7.00 |  |  |  |  | 6.70 | 7.00 | 7.22
6 | NC(=O)/C(=C1\Nc2ccc(NC(=O)[C@H]3CCCN3)cc2N1)c1nccc(C(F)(F)F)n1 [Compound 79A] | 7.70 | 7.70 | 8.00 | 6.40 |  |  |  |  | 7.00 | 6.52 | 7.40
7 | CN1CCC[C@H]1C(=O)Nc1ccc2c(c1)S/C(=C(/C(N)=O)c1nccc(C(F)(F)F)n1)N2 [Compound 78A] | 7.22 | 7.40 | 7.30 | 6.22 |  |  |  |  | 5.70 | 6.00 | 6.40
8 | NC(=O)/C(=C1\Nc2ccc(C(=O)NCCN3CCOCC3)cc2S1)c1nccc(C(F)(F)F)n1 [Compound 54A] | 8.22 | 8.00 | 8.00 | 6.40 |  |  |  |  | 6.40 | 6.52 | 7.52
9 | NC(=O)C(=C1Nc2ccccc2N1)c1nccc(C(F)(F)F)n1 [Compound 1A, 2-[1H-benzimidazol-2(3H)-ylidene]-2-(4-trifluoromethylpyrimidin-2-yl)acetamide] | 8.00 | 8.30 | 8.00 | 6.70 |  |  |  |  | 6.52 | 6.00 | 7.15
10 | NC(=O)/C(=C1\Nc2ccc(C(=O)NCCN3CCC(F)(F)CC3)cc2N1)c1nccc(C(F)(F)F)n1 [Compound 51A] | 8.15 | 8.22 | 7.70 | 6.52 |  |  |  |  | 6.30 | 7.30 | 7.52
11 | NC(=O)C(=C1Nc2cc(F)c(F)cc2N1)c1nccc(C(F)(F)F)n1 [Compound 38A] | 7.40 | 8.00 | 6.70 | 6.52 |  |  |  |  | 6.10 | 6.00 | 7.00
12 | CCN(CCCn1ccnc1)C(=O)c1ccc2c(c1)N/C(=C(/C(N)=O)c1nccc(C(F)(F)F)n1)N2 [Compound 48A] | 8.00 | 9.00 | 8.00 | 6.52 |  |  |  |  | 6.22 | 7.00 | 7.40

Second part, led by results:

Row | pIC50 (Aurora A kinase) | pIC50 (Aurora B kinase) | pIC50 (VEGFR2 kinase) | pIC50 (p-H3 in HCT116 cells; [4]) | SMILES | pIC50 (p-H3 in HCT116 cells; HCT-116, 4 h) | pIC50 [1] | pIC50 [2] | pIC50 [3] | pIC50 [1, 5] | pIC50 [2, 5] | pIC50 [3, 6]
13 | 8.30 | 8.05 | 8.00 | 6.52 | NC(=O)/C(=C1\Nc2ccc(CCN3CCS(=O)(=O)CC3)cc2S1)c1nccc(C(F)(F)F)n1 [Compound 100A] |  |  |  |  | 6.40 | 7.05 | 7.70
14 | 7.70 | 8.22 | 7.70 | 6.70 | NC(=O)/C(=C1\Nc2ccc(S(=O)(=O)NCCCN3CCOCC3)cc2S1)c1nccc(C(F)(F)F)n1 [Compound 127A] |  |  |  |  | 6.22 | 6.30 | 7.40
15 | 8.30 | 8.30 | 8.22 | 7.00 | NC(=O)/C(=C1\Nc2ccc(Cn3ccnc3)cc2S1)c1nccc(C(F)(F)F)n1 [Compound 89A] |  |  |  |  | 6.30 | 6.15 | 7.10
16 | 7.40 | 8.00 | 7.00 | 5.40 | NC(=O)/C(=C1\Nc2ccc(Oc3cccnc3)cc2S1)c1nccc(C(F)(F)F)n1 [Compound 118A] |  |  |  |  | 5.70 | 6.52 | 6.70
17 | 8.40 | 8.05 | 8.40 | 7.15 | NC(=O)/C(=C1\Nc2ccc(Cn3ccnc3)cc2N1)c1nccc(C(F)(F)F)n1 [Compound 90A] |  |  |  |  | 6.70 | 7.00 | 7.05
18 | 8.10 | 8.05 | 8.00 | 6.70 | NC(=O)/C(=C1\Nc2ccc(NC(=O)CCn3ccnc3)cc2N1)c1nccc(C(F)(F)F)n1 [Compound 87A] |  |  |  |  | 6.70 | 7.00 | 7.05
19 | 8.15 | 8.15 | 8.00 | 7.10 | NC(=O)/C(=C1\Nc2ccc(CN3CCNCC3)cc2S1)c1nccc(C(F)(F)F)n1 [Compound 94A] |  |  |  |  | 6.70 | 7.00 | 7.30
20 | 8.22 | 8.05 | 7.70 | 6.40 | CN1CCC(C(=O)Nc2ccc3c(c2)N/C(=C(/C(N)=O)c2nccc(C(F)(F)F)n2)N3)CC1 [Compound 140A] |  |  |  |  | 6.40 | 6.52 | 7.70
21 | 8.40 | 8.10 | 7.70 | 7.22 | NC(=O)/C(=C1\Nc2cc(NC(=O)Cn3ccnc3)ccc2S1)c1nccc(C(F)(F)F)n1 [Compound 88A] |  |  |  |  | 6.52 | 7.00 | 6.52
22 | 7.70 | 8.00 | 7.70 | 5.70 | NC(=O)/C(=C1\Nc2ccc(CCN3CCSCC3)cc2S1)c1nccc(C(F)(F)F)n1 [Compound 103A] |  |  |  |  | 5.70 | 7.00 | 7.00

Source: patent US8129396B2, “2-[1H-benzimidazol-2(3H)-ylidene]-2-(pyrimidin-2-yl)acetamides and 2-[benzothiazol-2(3H)-ylidene]-2-(pyrimidin-2-yl)acetamides as kinase inhibitors” (Telik, Inc., priority 2008, dated 2012)
